According to the NIST ThermoML archive (doi:10.1021/je900749a):

Experiment: cn = amount concentration of the nth substance listed, in mol/dm3
Details: 300 K, Ring tensiometer

CN(C)CCC=C1c2ccccc2CCc2ccccc21.Cl + O
Details	surface tension liquid-gas [mN/m]
c1 = 0.001584	69.15
c1 = 0.003138	62.75
c1 = 0.009057	55.25
c1 = 0.01455	50.75
c1 = 0.02441	46.1
c1 = 0.02885	44.55
c1 = 0.03301	43.15
c1 = 0.0406	42.55
c1 = 0.04572	42.5

CN(C)CCCN1c2ccccc2CCc2ccccc21.Cl + O
Details	surface tension liquid-gas [mN/m]
c1 = 0.003658	68.55
c1 = 0.007143	62.15
c1 = 0.01364	54.6
c1 = 0.01957	51.7
c1 = 0.03	47.05
c1 = 0.03889	43.75
c1 = 0.04287	43
c1 = 0.04655	42.3
c1 = 0.05	42.3
c1 = 0.05769	42.3

CN(C)CCCN1c2ccccc2Sc2ccc(Cl)cc21.Cl + O
Details	surface tension liquid-gas [mN/m]
c1 = 0.001381	65.7
c1 = 0.002344	60.5
c1 = 0.003289	57.15
c1 = 0.004762	53.4
c1 = 0.006542	50.5
c1 = 0.009091	47.15
c1 = 0.01228	45.2
c1 = 0.01525	44.15
c1 = 0.01666	44
c1 = 0.01803	44.05
c1 = 0.01936	44

CC(CN1c2ccccc2Sc2ccccc21)N(C)C.Cl (stereo not given) [promethazine hydrochloride] + O
Details	surface tension liquid-gas [mN/m]
c1 = 0.002941	71.3
c1 = 0.005769	64.15
c1 = 0.01111	56.45
c1 = 0.01842	50.35
c1 = 0.02903	46.45
c1 = 0.03637	43.4
c1 = 0.04287	42.55
c1 = 0.04865	42.2
c1 = 0.05385	42.1
c1 = 0.05853	42.15
